Assay results from ChEMBL document CHEMBL3046959, “Influence of Absolute Configuration of Indanofan on Herbicidal Activity” (2001).
Active and inactive are the calls of the source. The calls are words filed in the database; no cut-off is given here.

Tested on: Echinochloa crus-galli
Test: Herbicidal activity against 2.5 leaf stage of Echinochloa crus-galli (barnyard grass) after 2 weeks under greenhouse condition by pot test
Format: functional

Compound	ED90
CCC1(CC2(c3cccc(Cl)c3)CO2)C(=O)c2ccccc2C1=O (racemic)	inactive
CCC1(CC2(c3cccc(Cl)c3)CO2)C(=O)c2ccccc2C1=O (single isomer, unassigned; (+)) [(RS)-INDANOFAN]	0.0254 KgAi/ha
CCC1(CC2(c3cccc(Cl)c3)CO2)C(=O)c2ccccc2C1=O (single isomer, unassigned; (-)) [(RS)-INDANOFAN]	0.0524 KgAi/ha
